Data on 8 compounds can be found in ChEMBL document CHEMBL1129146, “Pentamidine congeners. 4. DNA binding affinity and anti-Pneumocystis carinii activity of butamidine analogues” (1996).

For experiment [1], the system named is Pneumocystis carinii. Briefly: Compound was tested for anti-P. carinii activity in vitro. It counts as functional.
Experiment [2] deals with Nucleic Acid. Briefly: Delta Tm (thermal denaturation) in sonicated calf thymus DNA. In kind it is nucleic-acid assay. More on the design: unit not given here. Conditions: Bos taurus.
A short description of experiment [3]: Delta Tm (thermal denaturation) in sonicated poly(dA).poly(dT) homopolymer.

Structures are written as SMILES.

The compound `N=C(N)c1ccc(OC[C@@H](O)[C@@H](O)COc2ccc(C(=N)N)cc2)cc1` had an Activity in experiment [1] of 78 µM.

As for `N=C(N)c1ccc(OC/C=C/COc2ccc(C(=N)N)cc2)cc1`, the values for the ΔTm in experiment [2] and in experiment [3] were 7.7 and 23.3, respectively. Further, in experiment [1], the Activity turned out to be 19 µM.

`N=C(N)c1ccc(OC/C=C\COc2ccc(C(=N)N)cc2)cc1`: the ΔTm in experiment [2] was found to be 11; in experiment [3] it was 31.5. Besides, the Activity in experiment [1] amounted to 9 µM.

Take `N=C(N)c1ccc(OCCCCCOc2ccc(C(=N)N)cc2)cc1` [PENTAMIDINE]: the ΔTm in experiment [2] amounted to 10; in experiment [3] it was 22.9. This compound also yielded an Activity in experiment [1] of 27 µM.

`N=C(N)c1ccc(OCCCCOc2ccc(C(=N)N)cc2)cc1`: the ΔTm amounted to 8.3 in experiment [2] and 20.4 in experiment [3]. Further, the Activity in experiment [1] came out at 39 µM.

For the compound `C(=C\COc1ccc(C2=NCCN2)cc1)/COc1ccc(C2=NCCN2)cc1`, the ΔTm in experiment [2] came out at 7.9; in experiment [3], 20.8. This compound showed an Activity in experiment [1] of 42 µM.

As to `C(=C/COc1ccc(C2=NCCN2)cc1)/COc1ccc(C2=NCCN2)cc1`, the ΔTm in experiment [2] is 9.3; in experiment [3] it was 28.9. In experiment [1], this compound had an Activity of 25 µM.

`COc1cc(Cc2cnc(N)nc2N)cc(OC)c1OC.Cc1cc(NS(=O)(=O)c2ccc(N)cc2)no1` [CO-TRIMOXAZOLE]: in experiment [1], the Activity was 17 µM.
